Measurements reported in US20160376605A1, “WHEAT PLANTS HAVING INCREASED TOLERANCE TO IMIDAZOLINONE HERBICIDES” (BASF SE, priority 2003, published 2016).

Key:
[1] = tested on: Durum wheat M3:4 lines derived from M2 plant UT03; assay: Field Trials (2): tolerance scores at two rates of imazamox; format: in vivo; details: UT03, range across M3:4 lines
Description: (§1) One hundred ten M3:4 lines derived from sixteen M2 plants were screened at 71 g/ha and 160 g/ha imazamox. The number of M4 lines per M2 plant varied from one to twenty. Tolerance of M3:4 lines was compared to untreated plots of the same line as well as to treated plots of a wild-type cultivar from which some of them were derived.
(§2) All tested lines survived at both rates of herbicide treatment, whereas all plants of the wild type were killed at both rates. Based on comparison to the wild type line, all lines tested expressed considerable tolerance to the applied rates, particularly when looking at height reduction relative to untreated plots. A rate of 35 g/ha imazamox is adequate to kill susceptible durum wheat.

[2] = tested on: Durum wheat M3:4 lines derived from M2 plant UT17; assay: as above; format: in vivo; details: UT17, range across M3:4 lines
Description: as §1, §2

In the case of `COCc1cnc(C2=NC(C)(C(C)C)C(=O)N2)c(C(=O)O)c1` (stereo not shown) [imazamox], the “% Chlorosis” value ([1]; imazamox 71 g/ha, 14 DAT) is reported as 0%, the “% Height Reduction” value ([1]; imazamox 71 g/ha, 14 DAT) is reported as 10% and the “% Chlorosis” value ([1]; imazamox 71 g/ha, 30 DAT) is reported as 5%. The “% Height Reduction” value ([1]; imazamox 71 g/ha, 30 DAT) was 5%, the “% Chlorosis” value ([1]; imazamox 160 g/ha, 14 DAT) was 5% and the “% Height Reduction” value ([1]; imazamox 160 g/ha, 14 DAT) was 10%. The “% Chlorosis” value ([1]; imazamox 160 g/ha, 30 DAT) was 5%, the “% Height Reduction” value ([1]; imazamox 160 g/ha, 30 DAT) was 5% and the “% Chlorosis” value ([2]; imazamox 71 g/ha, 14 DAT) was 5-20%. The “% Height Reduction” value ([2]; imazamox 71 g/ha, 14 DAT) was 0-20%, the “% Chlorosis” value ([2]; imazamox 71 g/ha, 30 DAT) was 0% and the “% Height Reduction” value ([2]; imazamox 71 g/ha, 30 DAT) was 5-20%. For the same compound, the “% Chlorosis” value ([2]; imazamox 160 g/ha, 14 DAT) was 5-30%, the “% Height Reduction” value ([2]; imazamox 160 g/ha, 14 DAT) was 0-30% and the “% Chlorosis” value ([2]; imazamox 160 g/ha, 30 DAT) was 0-5%. For the same compound, the “% Height Reduction” value ([2]; imazamox 160 g/ha, 30 DAT) was 5-30%.
